Reference: US20170209579A1, “NON-INVASIVE RADIOFREQUENCY FIELD TREATMENT FOR CANCER THERAPY” (Baylor College of Medicine, priority 2014, published 2017)

Tests used:
Mre11 = experiment: Colocalization of Mre11 with γ-H2AX foci at gemcitabine-stalled replication forks; assay type: cell-based, human; conditions: Hep3B
Source text: (§1) FIGS. 15A-15D provide inhibition of Mre11 and Rad51 recruitment at gemcitabine-stalled replication forks by hyperthermia. (15A) Hep3B cells were exposed to hyperthermia and/or gemcitabine. (15B) and (15C) Mre11 and Rad51 were recruited at gemcitabine-stalled replication forks. […] Scale bar=10 μm. (15D) Quantification of data from colocalization experiments. Data are mean Pearson correlation (a.u.) and error bars represent the SD from three independent experiments with 10 replicates each (*P<0.05, **P<0.01). Gem=Gemcitabine; HT=Hyperthermia; N/A=not applicable, i.e., in hyperthermia treated cells BrdU staining is not detected as distinct foci and therefore correlation could not be quantified; ns=not significant, by the Student unpaired two-sided t test in comparison with gemcitabine alone group. Also, see FIGS. 22-24. […]
(§2) For immunocytochemistry assay, an indirect immunofluorescence approach was used. […] Cells from an exponentially growing culture were counted and approximately 50,000 cells were seeded in each well of a 12-well plate. […]
(§3) The slides were sealed with a conventional nail polish hardener and stored at 4° C. until imaging. […] Exposure settings were set to maximize dynamic range initially and then kept constant across multiple samples to allow quantitative comparisons. […]

Rad51 = experiment: Colocalization of Rad51 with γ-H2AX foci at gemcitabine-stalled replication forks; assay type: cell-based, human; conditions: Hep3B
Source text: as §1, §2, §3

[1] = tested on: orthotopic pancreatic tumors (KPC pancreatic adenocarcinoma cells); experiment: Gemcitabine uptake into orthotopic KPC pancreatic tumors with and without RF (LC-MS); assay type: in vivo, mouse; conditions: 70 mg/Kg systemic injection, sacrificed 5 hours later, RF until 41° C.
Source text: FIGS. 11A-11E illustrate an example of an embodiment of the use RF energy to enhance the uptake of chemotherapy drugs into tumors compared to using chemotherapy drugs alone. (11A) Female Nude mice (4-6 weeks old) were given direct injections of KPC pancreatic adenocarcinoma cells (1×10^6) into the pancreas. After 1-2 weeks (enough time for a orthotopic pancreatic tumor to form) the mice were subjected to RF exposure under a ramped power treatment protocol as shown in the table. (11B) Graph of a typical RF power and resulting temperature versus time plot for a single mouse being exposed to RF energy. The surface temperature of the mouse in close proximity to the pancreas was recorded using an IR camera. The RF exposure was turned off once the temperature reached 41° C. […] Quantification of Gemcitabine was analyzed using Liquid Chromatography Mass Spectroscopy (LC-MS). (11E) Quantification of the levels of Gemcitabine in the orthotopic pancreatic tumors of mice with and without RF exposure. […]
FIGS. 11A-11E illustrate an example of an embodiment of the use RF energy to enhance the uptake of chemotherapy drugs into tumors compared to using chemotherapy drugs alone. […] The surface temperature of the mouse in close proximity to the pancreas was recorded using an IR camera. […] Quantification of Gemcitabine was analyzed using Liquid Chromatography Mass Spectroscopy (LC-MS). […]

[2] = hyperthermia 42.5° C. 75 minutes then gemcitabine 10 μg/ml

- Gemcitabine present in tumors, RF-treated mice versus control group [1]: approximately 4 ×
SMILES: Nc1ccn([C@@H]2O[C@H](CO)[C@@H](O)C2(F)F)c(=O)n1 [gemcitabine, 2′,2′-difluoro 2′-deoxycytidine]
- mean Pearson correlation, Mre11 with γ-H2AX foci (Mre11; gemcitabine alone (10 μg/ml)): 0.37
- mean Pearson correlation, Mre11 with γ-H2AX foci (Mre11; [2]): 0.23
- mean Pearson correlation, Rad51 with γ-H2AX foci (Rad51; gemcitabine alone (10 μg/ml)): 0.24
- mean Pearson correlation, Rad51 with γ-H2AX foci (Rad51; [2]): 0.44
